In ChEMBL document CHEMBL1122286, “Heterocyclic oxyacetic acid diuretics: indazole, benzisothiazole, and benzisothiazole 1,1-dioxide analogues of [[7-chloro-3-(2-fluorophenyl)-1,2-benzisoxazol-6-yl]oxy]acetic acid” (1983):

Legend:
Type in all cases: functional, Urine
Mus musculus [1] = test: Compound was tested for diuretic activity after oral administration of 64 mg/kg in saline-loaded mice vehicle control value=0.72)
Mus musculus [2] = test: Compound was tested for diuretic activity after oral administration of 64 mg/kg in saline-loaded mice (vehicle control value=0.27)
Mus musculus [3] = test: Compound was tested for diuretic activity after oral administration of 64 mg/kg in saline-loaded mice (vehicle control value=0.05)
Mus musculus [4] = test: Compound was tested for diuretic activity after oral administration of 64 mg/kg in saline-loaded mice (vehicle control value=0.68)
Mus musculus [5] = test: Compound was tested for diuretic activity per os in saline-loaded mice at 64 mg/kg. (vehicle control value=1.22)
Mus musculus [6] = test: Compound was tested for diuretic activity after oral administration of 64 mg/kg in saline-loaded mice (vehicle control value=0.8)
Mus musculus [7] = test: Compound was tested for diuretic activity after oral administration of 64 mg/kg in saline-loaded mice (vehicle control value=0.42)
Mus musculus [8] = test: Compound was tested for diuretic activity after oral administration of 64 mg/kg in saline-loaded mice (vehicle control value=0.6)
Mus musculus [9] = test: Compound was tested for diuretic activity after oral administration of 64 mg/kg in saline-loaded mice vehicle control value=0.25)
Mus musculus [10] = test: Compound was tested for diuretic activity after oral administration of 64 mg/kg in saline-loaded mice (vehicle control value=0.56)
Mus musculus [11] = test: Compound was tested for diuretic activity after oral administration of 64 mg/kg in saline-loaded mice (vehicle control value=0.2)
Mus musculus [12] = test: Compound was tested for diuretic activity after oral administration of 64 mg/kg in saline-loaded mice (vehicle control value=0.3)
Mus musculus [13] = test: Compound was tested for diuretic activity after oral administration of 64 mg/kg in saline-loaded mice (vehicle control value=0.1)

Compound `O=C(O)COc1ccc(-c2nsc3ccccc23)c(Cl)c1Cl` has a Diuretic activity (Mus musculus [1]) of 1.18 m equiv [Na+] 5hr-1kg-1.
In the case of `O=C(O)COc1ccc2c(-c3ccccc3F)[nH]nc2c1Cl`, the Diuretic activity (Mus musculus [2]) is reported as 0.45 m equiv [Na+] 5hr-1kg-1.
With `O=C(O)COc1ccc2c(-c3ccccc3F)noc2c1Cl` the Diuretic activity (Mus musculus [3]) was 10 m equiv [Na+] 5hr-1kg-1.
`Cn1nc(-c2ccccc2Cl)c2ccc(OCC(=O)O)c(Cl)c21` was tested, and the Diuretic activity (Mus musculus [4]) was 2.29 m equiv [Na+] 5hr-1kg-1.
For `O=C(O)COc1ccc2c(-c3ccccc3)nsc2c1Cl`, the Diuretic activity (Mus musculus [5]) was 2.28 (m equiv [Na+]) 5hr-1 kg-1.
For `O=C(O)COc1ccc(C2=NS(=O)(=O)c3ccccc32)c(Cl)c1Cl`, the Diuretic activity (Mus musculus [6]) was 2.03 m equiv [Na+] 5hr-1kg-1.
Compound `Cn1nc(-c2ccc(OCC(=O)O)c(Cl)c2Cl)c2ccccc21` has a Diuretic activity (Mus musculus [7]) of 0.61 m equiv [Na+] 5hr-1kg-1.
Work on `O=C(O)COc1ccc2c(-c3ccccc3Cl)noc2c1Cl` yielded a Diuretic activity (Mus musculus [8]) of 9.1 m equiv [Na+] 5hr-1kg-1.
`O=C(O)COc1ccc2c(-c3ccccc3F)nsc2c1Cl` showed a Diuretic activity (Mus musculus [9]) of 4.59 m equiv [Na+] 5hr-1kg-1.
`O=C(O)COc1ccc(-c2[nH]nc3ccccc23)c(Cl)c1Cl` showed a Diuretic activity (Mus musculus [10]) of 0.65 m equiv [Na+] 5hr-1kg-1.
`CC1(c2ccccc2)Cc2cc(OCC(=O)O)c(Cl)c(Cl)c2C1=O` (centres undefined) [INDACRINONE] showed a Diuretic activity (Mus musculus [11]) of 7.6 m equiv [Na+] 5hr-1kg-1.
For `C=C(CC)C(=O)c1ccc(OCC(=O)O)c(Cl)c1Cl` [ETHACRYNIC ACID], the Diuretic activity (Mus musculus [12]) was 4.14 (m equiv [Na+]) kg-1.
`O=C(O)COc1ccc2c(c1Cl)S(=O)(=O)N=C2c1ccccc1F` showed a Diuretic activity (Mus musculus [6]) of 0.18 m equiv [Na+] 5hr-1kg-1.
`O=C(O)COc1ccc(C(=O)c2cccs2)c(Cl)c1Cl` [TICRYNAFEN] gave a Diuretic activity (Mus musculus [13]) of 3.31 m equiv [Na+] 5hr-1kg-1.
